Data published in patent US20240335424A1, “COMPOSITIONS AND METHODS FOR TREATING LIPOMA PAIN” (Raziel Therapeutics Ltd., priority 2021, published 2024).
“Also recorded” adds a separate entry of the source.

Columns and labels:
Format in all cases: in vivo, human
[1] = Phase 2b clinical trial: safety (adverse events, vital signs, clinical laboratory, ECG); conditions: up to 200 mg/subject, subcutaneous injection into lipomas
Excerpt: The clinical trial described herein was a double-blind, randomized, placebo-controlled phase 2b clinical trial for the evaluation of safety and efficacy of Compound 1 (5-(3,6-dibromo-9H-carbazol-9-yl)-N,N,N-trimethylpentan-1-aminium, provided as a chloride salt, also designated Compound 1A), in subjects having Dercum's disease (DD) lipomas.
Study Objectives. The primary objective was to evaluate the average percent reduction in lipoma height on day 84 after injection vs. baseline in the treatment group compared to the placebo group. Efficacy was determined by ultrasound assessment of the lipoma/nodule dimensions after treatment vs. baseline. The key secondary objective was assessment of lipoma/nodule associated pain using the Comparative Pain Scale. Safety was assessed by frequency of adverse events and by change-from-baseline values for vital signs, clinical laboratory and ECG.
Study Design. This was a double blind, multi-center, randomized, placebo-controlled clinical trial in DD subjects having lipomas. A total of 38 DD patients were enrolled into the study. Patients were randomized in approximately a 1:1 ratio into either the intervention or the placebo arm. Twenty (20) subjects, having a total of 125 lipomas, were treated with Compound 1. Eighteen (18) subjects, having a total of 110 lipomas, were treated with placebo. Once the study ended and codes were opened, 84 days after dosing.
At least 4 lipomas/nodules, preferably 6, and no more than 8, were injected per subject. Compound 1 dose per injection site was 5 mg, and a distance of 1-3 cm between injection points was maintained, to allow good distribution of Compound 1 within lipoma fat. A maximal dose of up to 240 mg/subject (a total of 48 injections of 5 mg/injection) was allowed in this study and the highest actual tested dose was 200 mg/subject (40 injections into 4-8 lipomas). A total of 20 patients were treated with Compound 1 and a total of 18 patients were treated with placebo.

[2] = test system: Dercum's disease (DD) lipomas; assay: Phase 2b clinical trial: lipoma/nodule height by ultrasound; conditions: day 84 after injection vs. baseline, compared to placebo
Excerpt: The clinical trial described herein was a double-blind, randomized, placebo-controlled phase 2b clinical trial for the evaluation of safety and efficacy of Compound 1 (5-(3,6-dibromo-9H-carbazol-9-yl)-N,N,N-trimethylpentan-1-aminium, provided as a chloride salt, also designated Compound 1A), in subjects having Dercum's disease (DD) lipomas. Study Objectives. The primary objective was to evaluate the average percent reduction in lipoma height on day 84 after injection vs. baseline in the treatment group compared to the placebo group. Efficacy was determined by ultrasound assessment of the lipoma/nodule dimensions after treatment vs. baseline. The key secondary objective was assessment of lipoma/nodule associated pain using the Comparative Pain Scale. Safety was assessed by frequency of adverse events and by change-from-baseline values for vital signs, clinical laboratory and ECG. Study Design. […] Dosing was calculated according to lipoma size (diameter) as determined by ultrasound. […] Primary endpoint was the average percent reduction in lipoma/noduleheight on day 84 after injection vs baseline-evaluated by ultrasound in the Compound 1 treatment group compared to the placebo group. Key secondary endpoint was reduction in local pain score per lipoma/nodule on Day 84 vs. baseline as measured by the Comparative Pain Scale. […]

[3] = test system: Dercum's disease (DD) lipomas; assay: Phase 2b clinical trial: lipoma pain by Comparative Pain Scale; conditions: for Pain Score: Average per patient, Mean / Pain score: All lipomas, Mean: Comparative Pain Scale 0-10; for Pain score: All lipomas, Mean / Change from baseline in Pain Score: All lipomas, Relative Change from baseline, Mean: per lipoma analysis
Excerpt: The clinical trial described herein was a double-blind, randomized, placebo-controlled phase 2b clinical trial for the evaluation of safety and efficacy of Compound 1 (5-(3,6-dibromo-9H-carbazol-9-yl)-N,N,N-trimethylpentan-1-aminium, provided as a chloride salt, also designated Compound 1A), in subjects having Dercum's disease (DD) lipomas. Study Objectives. The primary objective was to evaluate the average percent reduction in lipoma height on day 84 after injection vs. baseline in the treatment group compared to the placebo group. Efficacy was determined by ultrasound assessment of the lipoma/nodule dimensions after treatment vs. baseline. The key secondary objective was assessment of lipoma/nodule associated pain using the Comparative Pain Scale. Safety was assessed by frequency of adverse events and by change-from-baseline values for vital signs, clinical laboratory and ECG. Study Design. This was a double blind, multi-center, randomized, placebo-controlled clinical trial in DD subjects having lipomas. A total of 38 DD patients were enrolled into the study. Patients were randomized in approximately a 1:1 ratio into either the intervention or the placebo arm. Twenty (20) subjects, having a total of 125 lipomas, were treated with Compound 1. Eighteen (18) subjects, having a total of 110 lipomas, were treated with placebo. Once the study ended and codes were opened, 84 days after dosing. Subjects received their study treatment on a single occasion in multiple injections. Dosing was calculated according to lipoma size (diameter) as determined by ultrasound. Subjects were dosed in accordance with Table 1. Injections were perpendicular (90°) to injected skin surface and spread randomly, at least 1 cm apart. At least 4 lipomas/nodules, preferably 6, and no more than 8, were injected per subject. Compound 1 dose per injection site was 5 mg, and a distance of 1-3 cm between injection points was maintained, to allow good distribution of Compound 1 within lipoma fat. A maximal dose of up to 240 mg/subject (a total of 48 injections of 5 mg/injection) was allowed in this study and the highest actual tested dose was 200 mg/subject (40 injections into 4-8 lipomas). A total of 20 patients were treated with Compound 1 and a total of 18 patients were treated with placebo. Primary endpoint was the average percent reduction in lipoma/noduleheight on day 84 after injection vs baseline-evaluated by ultrasound in the Compound 1 treatment group compared to the placebo group. Key secondary endpoint was reduction in local pain score per lipoma/nodule on Day 84 vs. baseline as measured by the Comparative Pain Scale. Comparative pain scale ranked the pain from a score from 0 to 10. A score of 0 indicated no pain, a score of 1-3 indicated minor pain, a score of 4-6 indicated moderate pain and a score of 7-10 indicated severe pain. Pain was compared between the intervention (Compound 1) and placebo groups on 2 levels-(1) on the patient level and (2) by lipomas, i.e. comparison between all injected lipomas before and after injection. Study Drug. Compound 1 was administered as a ready to use liquid for injection into subcutaneous fat, supplied in a 1 vial kit. Each vial contains 250 mg Compound 1/5 mL (50 mg/ml) solution Compound 1 in a vehicle comprised of water, propylene glycol and surfactant. The formulation is described in Table 2. Placebo was a solution comprised of vehicle only. Each injection of Compound 1 and placebo contained 0.1 ml. The vehicle was a ready-to-use liquid for injection into subcutaneous fat, supplied in a 1-vial kit. One vial contained 5 mL and had similar composition as the Compound 1 drug product, without the active substance. The components are: Tween-80, propylene glycol, benzyl alcohol, and water. The vehicle was manufactured and packed by […] (Israel) and complies with cGMP requirements. […]

[4] = Day 84, compared to the placebo group
[5] = Visit 2 - Baseline/Treatment (Day 0), prior to injection
[6] = Visit 5 - Day 28 post treatment
[7] = Visit 6 - Day 56 post treatment
[8] = Visit 7 - Day 84 post treatment

Compound: C[N+](C)(C)CCCCCn1c2ccc(Br)cc2c2cc(Br)ccc21 [Compound 1, 5-(3,6-dibromo-9H-carbazol-9-yl)-N,N,N-trimethylpentan-1-aminium]
- adverse events, kind [1]: mostly injection site edema pain and pruritus
- changes in blood parameters [1]: no clinically significant changes in blood parameters
- serious adverse events [1]: no reported serious adverse events
- tolerability [1]: generally well tolerated
- reduction in lipoma height [2]: not significant
- average pain reduction per patient (by-patient analysis) ([3]; 84 days after treatment, vs. 36.82% in placebo, P=0.98 as printed): 56.37%
- average pain reduction per lipoma (all-lipoma analysis) ([3]; 84 days after treatment, vs. 37.50% in placebo, p=0.0004 t-test, p 0.079 mixed model): 59.06%
- reduction in pain vs. placebo, by-lipoma analysis [3, 4]: significant reduction in pain per lipoma; also recorded: statistically significant reduction in pain
- reduction of pain vs. placebo, per-patient analysis [3, 4]: a trend for reduction of pain
- Pain Score: Average per patient, Mean [3, 5]: 4.89
- Pain score: All lipomas, Mean [3, 5]: 4.86
- Change from baseline in Pain Score: Average per patient, Relative Change from baseline, Mean [3, 6]: −41.76%
- Pain Score: Average per patient, Mean [3, 6]: 2.82
- Pain score: All lipomas, Mean [3, 6]: 2.72
- Change from baseline in Pain Score: All lipomas, Relative Change from baseline, Mean [3, 6]: −41.55%
- Change from baseline in Pain Score: Average per patient, Relative Change from baseline, Mean [3, 7]: −43.53%
- Pain Score: Average per patient, Mean [3, 7]: 2.56
- Pain score: All lipomas, Mean [3, 7]: 2.38
- Change from baseline in Pain Score: All lipomas, Relative Change from baseline, Mean [3, 7]: −46.74%
- Change from baseline in Pain Score: Average per patient, Relative Change from baseline, Mean [3, 8]: −56.37%
- Pain Score: Average per patient, Mean [3, 8]: 2.03
- Pain score: All lipomas, Mean [3, 8]: 1.86
- Change from baseline in Pain Score: All lipomas, Relative Change from baseline, Mean [3, 8]: −59.06%
- effect of a single dose injected into lipomas on lipoma-associated pain ([3]; single dose, via a single injection or multiple injections): significantly alleviates lipoma-associated pain
